Assay results as given in ChEMBL document CHEMBL6092158, “Green synthesis of neuroprotective spirocyclic chalcone derivatives and their role in protecting against traumatic optic nerve injury” (Eur J Med Chem, 2024).
Active and inactive are the calls of the source. The rule behind the calls is not given here.

Legend:
[1] = system: R28; assay: Cytoprotective activity against glutamate-induced cytotoxicity in rat R28 cells assessed as increase in cell viability at 10 uM incubated for 24 hrs in presence of glutamate by MTT assay; format: functional, cell-based
[2] = system: R28; assay: Cytoprotective activity against hydrogen peroxide-induced cytotoxicity in rat R28 cells assessed as increase in cell viability at 10 uM preincubated for 24 hrs followed by incubation with H2O2 for 24 hrs by MTT assay; format: functional, cell-based

Row | Compound | Activity [1] | Activity [2]
1 | CN1C[C@H](c2ccc(O)c(O)c2)[C@@H](C(=O)c2ccc(Cl)cc2)[C@]12C(=O)Nc1ccccc12 | Active | Active
2 | CN1C[C@H](c2ccc(O)c(O)c2)[C@@H](C(=O)c2ccc(Cl)cc2Cl)[C@]12C(=O)Nc1ccccc12 | Active | Active
3 | CN1C[C@H](c2ccc(O)c(O)c2)[C@@H](C(=O)c2ccc(OC(F)(F)F)cc2)[C@]12C(=O)Nc1ccccc12 | Active | Active
4 | CN1C[C@H](c2ccc(O)c(O)c2)[C@@H](C(=O)c2cccc(O)c2)[C@]12C(=O)Nc1ccccc12 | Active | Active
5 | CN1C[C@H](c2ccc(O)c(O)c2)[C@@H](C(=O)c2ccc(Br)cc2)[C@]12C(=O)Nc1ccccc12 | Active | Active
6 | CCCc1ccc(C(=O)[C@@H]2[C@@H](c3ccc(O)c(O)c3)CN(C)[C@@]23C(=O)Nc2ccccc23)cc1 | Active | Active
7 | CN1C[C@H](c2ccc(O)c(O)c2)[C@@H](C(=O)c2ccc(F)cc2)[C@]12C(=O)Nc1ccccc12 | Active | Active
8 | CN1C[C@H](c2ccc(O)c(O)c2)[C@@H](C(=O)c2ccc(Br)cc2F)[C@]12C(=O)Nc1ccccc12 | Active | Active
9 | COc1cc(C(=O)[C@@H]2[C@@H](c3ccc(O)c(O)c3)CN(C)[C@@]23C(=O)Nc2ccccc23)ccc1O | Active | Active
10 | CN1C[C@H](c2ccc(O)c(O)c2)[C@@H](C(=O)c2cccc(F)c2)[C@]12C(=O)Nc1ccccc12 | Active | Active
11 | CN1C[C@H](c2ccc(O)c(O)c2)[C@@H](C(=O)c2cccc(C(F)(F)F)c2)[C@]12C(=O)Nc1ccccc12 | inactive | inactive
